Measured values taken from patent US20230079819A1, “COMPOUNDS AND USES THEREOF” (Foghorn Therapeutics Inc., priority 2019, published 2023).

Experiments:
BRM = molecular target: T1, BRM (Homo sapiens, UniProt P51531); assay: ATPase catalytic activity of BRM, ADP-Glo in vitro biochemical assay; conditions: ATPase catalytic activity, 30 nM BRM, 400 μM ATP, read-out: BRM IP50
T1 construct: made in house; host or cells: High Five insect cells

BRG-1 = molecular target: T2, BRG-1 (Homo sapiens, UniProt P51532); assay: ATPase catalytic activity of BRG-1, ADP-Glo in vitro biochemical assay; conditions: ATPase catalytic activity, 30 nM BRG-1, 400 μM ATP, read-out: BRG1 IP50
T2 construct: made in house; host or cells: High Five insect cells
T2 sequence (P51532 whole entry): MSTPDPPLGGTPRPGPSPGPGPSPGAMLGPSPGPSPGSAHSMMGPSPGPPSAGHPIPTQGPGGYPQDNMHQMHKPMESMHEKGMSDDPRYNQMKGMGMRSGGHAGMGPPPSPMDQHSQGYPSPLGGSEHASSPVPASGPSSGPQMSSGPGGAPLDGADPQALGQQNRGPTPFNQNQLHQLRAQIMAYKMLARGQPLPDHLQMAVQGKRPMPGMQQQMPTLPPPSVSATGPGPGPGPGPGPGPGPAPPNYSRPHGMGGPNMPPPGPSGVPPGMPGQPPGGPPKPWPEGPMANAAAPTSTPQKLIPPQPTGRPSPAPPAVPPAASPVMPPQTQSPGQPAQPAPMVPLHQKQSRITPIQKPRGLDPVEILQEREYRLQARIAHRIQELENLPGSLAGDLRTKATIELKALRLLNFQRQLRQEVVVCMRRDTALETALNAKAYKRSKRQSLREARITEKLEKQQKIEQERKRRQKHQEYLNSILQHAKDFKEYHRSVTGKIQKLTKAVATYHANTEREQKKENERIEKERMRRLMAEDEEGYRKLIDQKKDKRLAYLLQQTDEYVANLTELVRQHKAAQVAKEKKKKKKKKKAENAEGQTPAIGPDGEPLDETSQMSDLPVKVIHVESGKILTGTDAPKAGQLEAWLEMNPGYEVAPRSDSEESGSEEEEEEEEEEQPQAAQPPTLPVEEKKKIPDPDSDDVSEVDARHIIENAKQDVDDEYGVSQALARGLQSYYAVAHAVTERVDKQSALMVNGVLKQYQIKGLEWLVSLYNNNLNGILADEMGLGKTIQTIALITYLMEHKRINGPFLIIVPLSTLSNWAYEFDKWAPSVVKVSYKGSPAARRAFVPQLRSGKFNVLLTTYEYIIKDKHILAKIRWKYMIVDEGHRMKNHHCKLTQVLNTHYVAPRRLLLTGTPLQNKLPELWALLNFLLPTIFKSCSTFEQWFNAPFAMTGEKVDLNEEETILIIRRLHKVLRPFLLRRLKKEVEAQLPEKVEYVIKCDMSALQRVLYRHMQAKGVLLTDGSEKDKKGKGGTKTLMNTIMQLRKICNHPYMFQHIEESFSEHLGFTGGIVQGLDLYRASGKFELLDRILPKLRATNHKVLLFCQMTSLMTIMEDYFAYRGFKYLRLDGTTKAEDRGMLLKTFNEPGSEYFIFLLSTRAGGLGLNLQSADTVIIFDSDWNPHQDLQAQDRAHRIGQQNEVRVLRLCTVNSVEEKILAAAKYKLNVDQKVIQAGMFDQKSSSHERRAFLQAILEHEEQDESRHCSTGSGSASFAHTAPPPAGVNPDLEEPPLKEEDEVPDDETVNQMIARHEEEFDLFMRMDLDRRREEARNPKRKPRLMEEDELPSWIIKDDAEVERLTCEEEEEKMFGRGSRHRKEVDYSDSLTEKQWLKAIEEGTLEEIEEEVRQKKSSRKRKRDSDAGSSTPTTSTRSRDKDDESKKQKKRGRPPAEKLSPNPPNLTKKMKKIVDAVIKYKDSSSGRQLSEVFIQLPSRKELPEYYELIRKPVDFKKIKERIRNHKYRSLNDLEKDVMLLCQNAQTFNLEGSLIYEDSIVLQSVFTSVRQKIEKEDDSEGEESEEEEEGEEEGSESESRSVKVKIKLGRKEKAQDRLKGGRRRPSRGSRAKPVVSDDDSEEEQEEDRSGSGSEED

T1 sequence (P51531 whole entry): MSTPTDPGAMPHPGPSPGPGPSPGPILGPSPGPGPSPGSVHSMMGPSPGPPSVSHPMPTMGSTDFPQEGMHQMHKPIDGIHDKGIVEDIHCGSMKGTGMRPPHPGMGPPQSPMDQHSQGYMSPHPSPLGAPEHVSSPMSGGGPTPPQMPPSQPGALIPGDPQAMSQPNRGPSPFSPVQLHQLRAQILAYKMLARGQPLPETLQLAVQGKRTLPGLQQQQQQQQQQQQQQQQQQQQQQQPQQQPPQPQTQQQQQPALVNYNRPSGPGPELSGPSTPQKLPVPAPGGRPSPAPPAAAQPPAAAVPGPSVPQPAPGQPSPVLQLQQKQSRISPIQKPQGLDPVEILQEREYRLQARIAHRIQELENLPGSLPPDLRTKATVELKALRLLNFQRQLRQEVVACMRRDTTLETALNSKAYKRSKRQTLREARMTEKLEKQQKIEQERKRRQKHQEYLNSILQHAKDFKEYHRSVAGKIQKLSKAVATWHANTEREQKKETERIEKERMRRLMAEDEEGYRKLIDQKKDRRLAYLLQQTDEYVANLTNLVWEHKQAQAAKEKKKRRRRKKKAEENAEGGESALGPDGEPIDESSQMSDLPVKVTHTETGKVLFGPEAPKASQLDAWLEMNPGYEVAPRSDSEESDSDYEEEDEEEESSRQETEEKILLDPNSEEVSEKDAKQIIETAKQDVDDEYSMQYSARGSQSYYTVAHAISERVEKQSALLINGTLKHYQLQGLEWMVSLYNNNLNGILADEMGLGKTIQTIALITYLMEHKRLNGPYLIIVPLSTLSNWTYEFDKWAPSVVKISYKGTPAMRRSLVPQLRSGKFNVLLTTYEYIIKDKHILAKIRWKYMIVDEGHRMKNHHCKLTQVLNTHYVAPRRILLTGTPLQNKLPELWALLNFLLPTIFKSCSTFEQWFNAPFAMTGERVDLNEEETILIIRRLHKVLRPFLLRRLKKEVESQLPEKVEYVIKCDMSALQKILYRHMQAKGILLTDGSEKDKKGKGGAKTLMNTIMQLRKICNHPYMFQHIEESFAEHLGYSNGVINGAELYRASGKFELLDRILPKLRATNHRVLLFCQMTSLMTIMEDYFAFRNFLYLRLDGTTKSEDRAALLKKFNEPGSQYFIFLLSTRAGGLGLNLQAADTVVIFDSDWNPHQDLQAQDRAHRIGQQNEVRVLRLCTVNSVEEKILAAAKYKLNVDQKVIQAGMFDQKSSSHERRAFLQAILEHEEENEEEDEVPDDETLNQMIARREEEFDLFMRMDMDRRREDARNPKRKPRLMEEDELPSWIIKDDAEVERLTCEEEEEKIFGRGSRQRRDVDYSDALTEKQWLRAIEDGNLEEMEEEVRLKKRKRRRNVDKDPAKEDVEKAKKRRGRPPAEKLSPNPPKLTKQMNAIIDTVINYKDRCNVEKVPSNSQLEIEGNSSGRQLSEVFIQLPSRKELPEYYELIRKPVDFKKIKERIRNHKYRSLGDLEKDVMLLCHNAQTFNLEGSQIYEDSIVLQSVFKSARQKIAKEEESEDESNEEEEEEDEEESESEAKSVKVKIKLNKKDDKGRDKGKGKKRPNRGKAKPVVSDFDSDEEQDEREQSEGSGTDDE

IC50 (BRM) [nM] | IC50 (BRG-1) [nM] | SMILES
> 100 | > 100 | Cc1nnc2n1CCN(c1cccc(-c3csc(NC(=O)CNC(=O)c4ccn(C(C)(C)C)c4)n3)n1)C2 [Compound 655]
> 100 | > 100 | CC(C)(C)n1ccc(C(=O)NCC(=O)Nc2nc(-c3cccc(N4CCC(S(C)(=O)=O)CC4)n3)cs2)c1 [Compound 656]
> 10 | > 100 | CC(C)(C)n1ccc(C(=O)NCC(=O)Nc2nc(-c3cccc(N4CCn5ccnc5C4)n3)cs2)c1 [Compound 657]
> 10 | > 10 | CN1CCc2cc(-c3csc(NC(=O)CNC(=O)c4ccn(S(C)(=O)=O)c4)n3)ccc21 [Compound 658]
> 100 | > 100 | CC(C)(C)n1ccc(C(=O)NCC(=O)Nc2nc(-c3cccc(N4C[C@@H]5OCC(F)(F)[C@@H]5C4)n3)cs2)c1 [Compound 661]
< 10 | < 10 | CC(C)(C)n1ccc(C(=O)NCC(=O)Nc2nc(-c3cccc(N4CC[C@H]5COC[C@@H]5C4)n3)cs2)c1 [Compound 662]
> 10 | > 100 | CC(C)(C)n1ccc(C(=O)NCC(=O)Nc2nc(-c3cccc(N4CCC(S(C)(=O)=O)C4)n3)cs2)c1 (stereo not drawn) [Compound 667]
> 10 | > 100 | CC(C)(C)n1ccc(C(=O)NCC(=O)Nc2nc(-c3cccc(N4CCC5(CCOC5)C4)n3)cs2)c1 (stereo not drawn) [Compound 671]
> 10 | > 10 | C[C@@H]1CCN(c2cccc(-c3csc(NC(=O)CNC(=O)c4ccn(C(C)(C)C)c4)n3)n2)C1 [Compound 673]
> 10 | > 10 | CC(C)(C)n1ccc(C(=O)NCC(=O)Nc2nc(-c3cccc(N4CCC5OCCC5C4)n3)cs2)c1 (stereo not drawn) [Compound 676]
< 10 | > 10 | CC(C)(C)n1ccc(C(=O)NCC(=O)Nc2nc(-c3cccc(N4CCc5cnccc5C4)n3)cs2)c1 [Compound 681]
> 100 | > 100 | CC(C)(C)n1ccc(C(=O)NCC(=O)Nc2nc(-c3cccc(N4CCC(n5cncn5)CC4)n3)cs2)c1 [Compound 682]
> 10 | > 10 | CS(=O)(=O)n1ccc(C(=O)NCC(=O)Nc2nc(-c3cccc(N4CC[C@@H](C(F)F)C4)n3)cs2)c1 [Compound 683]
> 10 | > 100 | CC(C)(C)n1ccc(C(=O)NCC(=O)Nc2nc(-c3cccc(N4CC(F)C4)n3)cs2)c1 [Compound 687]
> 10 | > 10 | COC[C@H](NC(=O)c1ccn(S(C)(=O)=O)c1)C(=O)Nc1nc(-c2ccc3c(c2)CCO3)cs1 [Compound 688]
> 10 | > 10 | CS(=O)(=O)n1ccc(C(=O)NCC(=O)Nc2nc(-c3cccc(N4CC[C@H](C(F)F)C4)n3)cs2)c1 [Compound 698]
> 10 | > 10 | COC[C@H](NC(=O)c1ccn(S(C)(=O)=O)c1)C(=O)Nc1nc(-c2cccc(N3CC[C@H](C(F)F)C3)n2)cs1 [Compound 699]
< 10 | > 10 | COc1cc(F)cc(-c2csc(NC(=O)CNC(=O)c3ccn(S(C)(=O)=O)c3)n2)c1 [Compound 701]
> 10 | > 10 | C[C@@H]1CN(c2cncc(-c3csc(NC(=O)CNC(=O)c4ccn(C(C)(C)C)c4)n3)n2)C[C@H](C)O1 [Compound 705]
> 10 | > 10 | COc1cccc(-c2csc(NC(=O)CNC(=O)c3ccn(S(C)(=O)=O)c3)n2)c1F [Compound 711]
> 10 | > 10 | COC[C@H](NC(=O)c1ccn(S(C)(=O)=O)c1)C(=O)Nc1nc(-c2cccc(C#N)c2)cs1 [Compound 712]
> 10 | > 10 | COC[C@H](NC(=O)c1ccn(S(C)(=O)=O)c1)C(=O)Nc1nc(-c2cc(F)cc(C#N)c2)cs1 [Compound 714]
> 10 | > 10 | COC[C@H](NC(=O)c1ccn(S(C)(=O)=O)c1)C(=O)Nc1nc(-c2ccc(F)c(OC)c2)cs1 [Compound 716]

The next lines start with the compound.

SMILES | IC50 (BRM) [nM] | IC50 (BRG-1) [nM]
CC(C)(C)n1ccc(C(=O)NCC(=O)Nc2nc(-c3cccc(N4CC[C@H]5OCCC[C@@H]5C4)n3)cs2)c1 [Compound 659] | > 10 | > 100
CC(C)(C)n1ccc(C(=O)NCC(=O)Nc2nc(-c3cccc(N4CC5CN(c6ccncc6)CC5C4)n3)cs2)c1 (stereo not drawn) [Compound 660] | > 100 | > 100
CC(C)(C)n1ccc(C(=O)NCC(=O)Nc2nc(-c3cccc(N4C[C@@H](F)[C@@H](F)C4)n3)cs2)c1 [Compound 664] | > 10 | > 100
CC(C)(C)n1ccc(C(=O)NCC(=O)Nc2nc(-c3cccc(N4CCN(S(C)(=O)=O)CC4)n3)cs2)c1 [Compound 665] | > 100 | > 100
CC(C)(C)n1ccc(C(=O)NCC(=O)Nc2nc(-c3cccc(N4CCCC5(CCO5)C4)n3)cs2)c1 (stereo not drawn) [Compound 668] | > 10 | > 10
CC(C)(C)n1ccc(C(=O)NCC(=O)Nc2nc(-c3cccc(N4CCCC5(CCCO5)C4)n3)cs2)c1 (stereo not drawn) [Compound 669] | > 100 | > 100
CN(C)[C@@H]1CCN(c2cccc(-c3csc(NC(=O)CNC(=O)c4ccn(C(C)(C)C)c4)n3)n2)C1 [Compound 670] | > 10 | > 100
CC(C)(C)n1ccc(C(=O)NCC(=O)Nc2nc(-c3cccc(N4CCC(C#N)C4)n3)cs2)c1 (stereo not drawn) [Compound 672] | > 10 | > 10
CC(C)(C)n1ccc(C(=O)NCC(=O)Nc2nc(-c3cccc(N4C[C@H]5COC[C@H]5C4)n3)cs2)c1 [Compound 674] | > 10 | > 10
CC(C)(C)n1ccc(C(=O)NCC(=O)Nc2nc(-c3cccc(N4CCC(F)C4)n3)cs2)c1 (stereo not drawn) [Compound 675] | > 10 | > 10
CC(C)(C)n1ccc(C(=O)NCC(=O)Nc2nc(-c3cccc(N4C[C@@H](F)[C@H](F)C4)n3)cs2)c1 [Compound 677] | > 100 | > 100
Cc1cc(N2CCN(c3cccc(-c4csc(NC(=O)CNC(=O)c5ccn(C(C)(C)C)c5)n4)n3)CC2)ccn1 [Compound 678] | > 100 | > 100
CC(C)(C)n1ccc(C(=O)NCC(=O)Nc2nc(-c3cccc(N4CCC(F)(F)C4)n3)cs2)c1 [Compound 679] | > 10 | > 10
CN(C)C1CCCN(c2cccc(-c3csc(NC(=O)CNC(=O)c4ccn(C(C)(C)C)c4)n3)n2)C1 (stereo not drawn) [Compound 680] | > 10 | > 100
COCC1CN(c2cccc(-c3csc(NC(=O)CNC(=O)c4ccn(C(C)(C)C)c4)n3)n2)CCO1 (stereo not drawn) [Compound 684] | > 10 | > 10
C[C@@H]1CN(c2cncc(-c3csc(NC(=O)CNC(=O)c4ccn(C(C)(C)C)c4)n3)c2)C[C@H](C)O1 [Compound 685] | > 10 | > 100
C[C@@H]1CN(c2cncc(-c3csc(NC(=O)CNC(=O)c4ccn(S(C)(=O)=O)c4)n3)c2)C[C@H](C)O1 [Compound 686] | > 10 | > 10

SMILES | IC50 (BRM) [nM] | IC50 (BRG-1) [nM]
CC(C)(C)n1ccc(C(=O)NCC(=O)Nc2nc(-c3cccc(N4C[C@@H]5[C@@H](CF)[C@@H]5C4)n3)cs2)c1 [Compound 689] | > 100 | > 100
CC(C)(C)n1ccc(C(=O)NCC(=O)Nc2nc(-c3cccc(N4CC[C@H](F)C4)n3)cs2)c1 [Compound 690] | > 10 | > 100
COC[C@H](NC(=O)c1ccn(S(C)(=O)=O)c1)C(=O)Nc1nc(-c2cccc(N3CC[C@@H](C(F)F)C3)n2)cs1 [Compound 691] | > 10 | > 100
CC(C)(C)n1ccc(C(=O)NCC(=O)Nc2nc(-c3cccc(N4CCn5ncnc5C4)n3)cs2)c1 [Compound 692] | > 10 | > 10
C[C@@H]1CN(c2cncc(-c3csc(NC(=O)CNC(=O)c4ccn(S(C)(=O)=O)c4)n3)n2)C[C@H](C)O1 [Compound 693] | < 10 | > 10
COC[C@H](NC(=O)c1ccn(S(C)(=O)=O)c1)C(=O)Nc1nc(-c2cc(F)c3c(c2)OCO3)cs1 [Compound 695] | < 10 | < 10
Cn1ccc(C2CCN(c3cccc(-c4csc(NC(=O)CNC(=O)c5ccn(C(C)(C)C)c5)n4)n3)CC2)n1 [Compound 696] | > 100 | > 100
CC(C)(C)n1ccc(C(=O)NCC(=O)Nc2nc(-c3cccc(N4CCCC(OC(F)F)C4)n3)cs2)c1 (stereo not drawn) [Compound 697] | > 10 | > 10
Cc1nc(C2CCCN(c3cccc(-c4csc(NC(=O)CNC(=O)c5ccn(C(C)(C)C)c5)n4)n3)C2)no1 (stereo not drawn) [Compound 704] | > 10 | > 10
Cn1cc(N2CCN(c3cccc(-c4csc(NC(=O)CNC(=O)c5ccn(C(C)(C)C)c5)n4)n3)CC2)cn1 [Compound 706] | > 100 | > 100
COC[C@H](NC(=O)c1ccn(S(C)(=O)=O)c1)C(=O)Nc1nc(-c2cncc(N3C[C@@H](C)O[C@@H](C)C3)n2)cs1 [Compound 707] | > 10 | > 10
COC[C@H](NC(=O)c1ccn(S(C)(=O)=O)c1)C(=O)Nc1nc(-c2cc(F)c3c(c2)CCO3)cs1 [Compound 708] | < 10 | < 10
CC(C)(C)n1ccc(C(=O)NCC(=O)Nc2nc(-c3cccc(N4CCCC(n5cncn5)C4)n3)cs2)c1 (stereo not drawn) [Compound 709] | > 10 | > 10
COC[C@H](NC(=O)c1ccn(S(C)(=O)=O)c1)C(=O)Nc1nc(-c2cccc(OC)c2F)cs1 [Compound 710] | > 10 | > 10
COC[C@H](NC(=O)c1ccn(S(C)(=O)=O)c1)C(=O)Nc1nc(-c2cc(F)c3c(c2)N(C)CC3)cs1 [Compound 713] | < 10 | < 10
CS(=O)(=O)n1ccc(C(=O)NCC(=O)Nc2nc(-c3cc(F)cc(C#N)c3)cs2)c1 [Compound 715] | > 10 | > 10
CS(=O)(=O)n1ccc(C(=O)NCC(=O)Nc2nc(-c3cccc([C@H]4[C@@H]5COC[C@@H]54)c3)cs2)c1 [Compound 717] | > 10 | > 10
